Experimental data taken from patent US20030225003A1, “Antimicrobial therapeutic compositions for oral and topical use” (priority 2002, published 2003).
Entries after “also recorded” stand apart in the source; their conditions may differ.

Key:
[1] = cited from earlier work
chronic fatigue syndrome = assay: Effect of menthocarvol (oral capsule or topical ointment) on chronic fatigue; assay type: in vivo, human
Protocol: (§1) In one embodiment menthocarvol was made by reacting carvacrol with hydrogen under a nitrogen atmosphere in the presence of platinum, as a catalyst, to form menthocarvol. The menthocarvol was administered orally as capsules and topically as ointments to human volunteers to establish that the preliminary preferred formulation functioned to cure specific disease conditions.
The presence of bacteria ([…]), parasites (entamoeba gingivalis, or trichomonas tenax) and/or fungi (Candida, or Aspergillus species) in the mouth, nose, or sinus cavities is often accompanied by a history of generalized malaise, fatigue, and frequent headaches, frequently referred to as general fatigue syndrome. Laboratory testing for pathogens is usually negative. People suffering from fatigue syndrome typically function at a substantially lower level of activity than they were capable of before the onset of fatigue symptoms. Fatigue is not improved by bed rest and may be exacerbated by physical or mental activity. Moreover, the presence of some microorganisms in the stomach (i.e. Helicobacter pylori) and bowels, especially in diverticulas (outpouchings of the intestinal mucosa), is often accompanied by malaise and headache.
In the United States, colonic diverticula occurs in approximately 50% of individuals older than 60 years of age. Treatment with menthocarvol of volunteers suffering from this chronic fatigue syndrome was conducted. The menthocarvol therapy was administered in an oral dose of a single 250 mg capsule (17.5 mg active ingredient) or 500 mg capsule (35 mg active ingredient). Two of the subjects, who had localized pain in an extremity, were treated topically with menthocarvol in an ointment (3% active ingredient in lanolin oil). A total of six active individuals complaining of fatigue syndrome participated in this study.

periodontal disease = assay: Effect of orally applied menthocarvol solution on periodontal disease; assay type: in vivo, human
Protocol: A study on three subjects was performed to test the effectiveness of orally applied ointments containing menthocarvol to treat periodontal disease in humans. The preliminary formulation used was first was a 3% solution of menthocarvol followed by treatment with a 0.6% solution, administered twice a week for three months. The treatment was given with a syringe and applied orally to the affected areas between the teeth at the gum line. […] This phenomenon disappeared in approximately two hours.

diarrhea = assay: Effect of menthocarvol capsules on patients with diarrhea; assay type: in vivo, human; conditions: for time to complete recovery: with oral rehydration
Protocol: as §1
Four human subjects were selected for this study with menthocarvol. In this study, the diarrhea symptoms were likely, from either acute bacterial infectous causes or food poisoning. The menthocarvol was administered orally in the form of capsules. Each 500 mg capsule contained 35 mg of the active ingredient. The therapy for each subject was usually oral administration of two 500 mg capsules.

[2] = six individuals, oral and topical formulations
[3] = four patients, two 500 mg capsules orally

SMILES: Cc1ccc(C(C)C)cc1O [carvacrol, 5-isopropyl-2-methylphenol]
- solubility in lipids [1]: soluble in lipids

SMILES: CC(C)C1CCC(C)C(O)C1 (stereo not drawn) [menthocarvol, hexahydrocarvacrol]
- effect on fatigue syndrome symptoms (chronic fatigue syndrome; Case 4, oral 500 mg capsule (35 mg active ingredient) after breakfast for five days): the fatigue and muscle soreness disappeared
- effect on fatigue syndrome symptoms (chronic fatigue syndrome; single cases, oral 250 mg capsule (17.5 mg active ingredient) after breakfast for five or ten days): the symptoms of malaise and unrefreshing sleep disappeared; also recorded: The sore throat and pain disappeared after five days of treatment; also recorded: the symptoms of fatigue and headache were relieved
- adverse side effects (chronic fatigue syndrome; single cases, oral 250 mg or 500 mg capsule after breakfast for five days): No adverse side effects were reported; also recorded: No adverse side affects were reported
- effect on localized pain in an extremity (chronic fatigue syndrome; single cases, topical cream, 3% active ingredient in lanolin oil, applied before exercise): The signs of leg and foot muscle fatigue disappeared after the tenth treatment; also recorded: The pain and swelling was significantly reduced after six applications
- effect on fatigue and pain, all cases (chronic fatigue syndrome; [2]): positive effects on the fatigue and pain
- unpleasant or adverse side effects, all subjects (chronic fatigue syndrome; [2]): No subjects complained of unpleasant or adverse side effects
- local side effect (tingling sensation) (periodontal disease; 0.6% solution): This side effect was not observed
- infection and observable periodontal disease (periodontal disease; 0.6% solution only, same three patients): some improvement
- local side effect on gums and tongue (periodontal disease; 3% solution): a temporary tingling sensation on the gums
- necrotic effect on the epithelial cells lining the mouth cavity (periodontal disease; 3% solution): no observable necrotic effect
- time until the tingling sensation disappeared (periodontal disease; 3% solution): approximately two
- inflammation of gums (periodontal disease; 3% solution applied at the gum line, three patients): a marked improvement in the inflammation of their gums was observed
- time to complete recovery (diarrhea; Case 3, two 500 mg capsules orally): 24 h
- cure of diarrhea, all four patients (diarrhea; [3]): the diarrhea was cured quickly
- unpleasant or adverse side effects (diarrhea; [3]): None of the patients reported unpleasant or adverse side effects
- time to complete recovery (diarrhea; single cases, two 500 mg capsules orally): three and two

SMILES: CC1CCC(C(C)C)C(O)C1 (stereo not drawn) [menthol, 1-Methyl-4-isopropyl cyclohexane-3-ol, reference compound]
- solubility in lipids [1]: soluble in lipids
